Source: US9599603B2, “Methods and compositions for modulating adhesion and migration of cadherin expressing cells” (Case Western Reserve University, priority 2008, dated 2017)

Columns and labels:
Format in all cases: cell-based
[1] = target: T1, N-cadherin (Homo sapiens, UniProt P19022); test: RGC neurite outgrowth on N-cadherin substrate (antagonist screen); conditions: ADH-1 vs vehicle control (FIG. 16A)
T1 construct: Fc (C); purchased R&D Systems
Method: Sterile 35 mm tissue culture dishes for retinal explants were coated with nitrocellulose in methanol and allowed to dry, before spreading 0.04-0.045 μg/plate of human N-cadherin-Fc (R&D Systems, Minneapolis, Minn.) across the center of each dish. Remaining binding sites on the nitrocellulose were blocked with 2% bovine serum albumin (BSA; Sigma, St. Louis, Mo.) in calcium/magnesium free phosphate buffer (CMF), and the dishes were rinsed with RPMI-1640 medium (HyClone, Logan, Utah). Cultures of retinal explants from embryonic day 8 chick were made as previously described in. Retinal explants were grown in RPMI-1640, 10% fetal bovine serum (HyClone), 2% chick serum (Invitrogen, Carlsbad, Calif.), 100 U/ml penicillin, 0.1 mg/ml streptomycin and 0.025 μg/ml amphotericin (Sigma). […] Neurite outgrowth was evaluated approximately 20 hours after plating. […] If outgrowth was affected, subsequent experiments determined the minimum concentration to affect outgrowth. […]
Neurite outgrowth was examined on a Nikon TE-200 inverted microscope (Tokyo, Japan), using a 10× objective. […] Subsequently measurements of neurite length and density were quantitated using the images. Length of the five longest neurites per explant was measured using MetaMorph version 6.3r4 (Molecular Devices, Downington Pa.). […] Control and experimental conditions were analyzed using the same thresholding parameters. […]

[2] = test system: Laminin; test: LN-229 glioblastoma cell adhesion to Laminin substrate (specificity control); conditions: 1 mM ADH-1, compared to control
Method: (§1) Sterile 35 mm tissue culture dishes were coated with nitrocellulose in methanol and allowed to dry. Distinct spots, containing 50 ng of either purified Laminin (Sigma) or N-cadherin-Fc (R&D Systems), were made by spotting 10 μl of protein solution on the nitrocellulose-coated tissue culture dishes. Each dish contained two distinct spots of both Laminin and N-cadherin-Fc. After a 20-min incubation at room temperature, the protein solutions were aspirated. Remaining binding sites on the nitrocellulose were blocked with 2% BSA in PBS, and the dishes were rinsed with DMEM (Invitrogen).
(§2) LN-229 (American Type Culture Collection, Manassus, Va.) cells plated the previous day in 100 mm tissue culture dishes and grown to 80% confluence were released with 2 mM EDTA in CMF. 4×10^5 cells were added to each tissue culture dish in the presence of N-cadherin peptidomimetic small molecules, reconstituted in either DMSO or 0.3% cyclodextrin, and diluted in DMEM supplemented with 10% fetal bovine serum (HyClone). […]
(§3) Adherent cells were detected by phase contrast light microscopy using a 20× objective on a Nikon TE-200 inverted microscope. […] The number of adherent cells per image was determined using threshold parameters in MetaMorph that highlighted individual cells that spread on the substrate spots. […] Data from control and experimental conditions were evaluated using the same thresholding parameters. […]

[3] = target: T1, N-cadherin; test: LN-229 glioblastoma cell adhesion to N-cadherin substrate; conditions: dose of 1 mM, 2 h adhesion
Method: as §1, §2, §3

T1 sequence (P19022 with tags, fused parts or gaps limits assumed): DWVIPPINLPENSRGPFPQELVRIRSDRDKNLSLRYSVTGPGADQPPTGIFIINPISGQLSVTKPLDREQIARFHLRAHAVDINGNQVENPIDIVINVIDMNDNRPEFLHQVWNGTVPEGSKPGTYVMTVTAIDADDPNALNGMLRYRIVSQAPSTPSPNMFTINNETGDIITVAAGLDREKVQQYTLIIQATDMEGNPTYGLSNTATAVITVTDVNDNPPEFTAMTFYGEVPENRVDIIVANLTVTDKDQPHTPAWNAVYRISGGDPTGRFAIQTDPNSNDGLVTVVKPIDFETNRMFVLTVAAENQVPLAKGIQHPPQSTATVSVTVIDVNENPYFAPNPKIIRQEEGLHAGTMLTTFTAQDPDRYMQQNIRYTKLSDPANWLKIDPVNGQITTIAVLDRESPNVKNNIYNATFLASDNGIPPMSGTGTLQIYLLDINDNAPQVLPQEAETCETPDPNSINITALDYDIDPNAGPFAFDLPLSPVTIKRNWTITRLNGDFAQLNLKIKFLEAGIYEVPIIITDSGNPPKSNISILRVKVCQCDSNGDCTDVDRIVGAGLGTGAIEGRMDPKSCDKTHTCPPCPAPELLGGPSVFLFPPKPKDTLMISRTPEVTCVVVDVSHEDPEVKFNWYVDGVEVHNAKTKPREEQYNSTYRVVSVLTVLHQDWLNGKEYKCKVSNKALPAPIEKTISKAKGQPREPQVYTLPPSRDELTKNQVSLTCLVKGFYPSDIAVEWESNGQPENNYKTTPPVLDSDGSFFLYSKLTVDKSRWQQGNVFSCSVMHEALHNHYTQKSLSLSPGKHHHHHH

effect on RGC neurite outgrowth on a substrate of N-cadherin [1]: eliminate RGC neurite outgrowth
adhesion of LN-229 cells to an N-cadherin substrate [3]: 46 % of control
Compound: CC(=O)N[C@H]1CSSC[C@@H](C(N)=O)NC(=O)[C@H](C(C)C)NC(=O)[C@H](C)NC(=O)[C@H](Cc2c[nH]cn2)NC1=O [ADH-1, N-Ac-CHAVC-NH2]
LN-229 adhesion to Laminin [2]: unaffected
